Experimental data reported in the PolyMetriX glass transition set.
± gives the standard deviation of the reports.

Row | SMILES | glass transition temperature
1 | *CC(*)CC (repeat unit) [Poly(butylene)] | -36.6 ± 12 °C
2 | *c1cccc(P(=O)(c2ccccc2)c2cccc(-n3c(=O)c4c(-c5ccc(C(F)(F)F)cc5)c5c(=O)n(*)c(=O)c5c(-c5ccc(C(F)(F)F)cc5)c4c3=O)c2)c1 (repeat unit) | 334.00 °C
3 | *c1ccc(-c2sc(-c3cc(SCCCCCCCC)c(*)s3)cc2SCCCCCCCC)cc1 (repeat unit) | 55.30 °C
4 | *OC1CCC(OC(=O)c2ccc(C(*)=O)cc2)CC1 (repeat unit) | 94.30 °C
5 | *c1ccc(Oc2ccc(C(=O)c3ccc(Oc4ccc(C(=O)c5ccc(Oc6ccc(-c7nc(-c8ccc(-c9nc(*)c(-c%10ccccc%10)[nH]9)cc8)[nH]c7-c7ccccc7)cc6)cc5)cc4)cc3)cc2)cc1 (repeat unit) | 245.00 °C
6 | *OC(=O)C(NC(=O)CCCCC(=O)NC(C(=O)OC1COC2C(*)COC12)C(C)CC)C(C)CC (repeat unit) | 102.00 °C
7 | *c1ccc(-c2nc3ccc(-c4ccc5nc(*)c(-c6ccccc6)nc5c4)cc3nc2-c2ccccc2)cc1 (repeat unit) | 354.50 °C
8 | *CC(CCCCCCCC)COC(=O)NC(=O)c1cccc(C(=O)NC(=O)O*)c1 (repeat unit) | 65.00 °C
9 | */C=C(\C#N)C(=O)OCCCCCCOC(=O)/C(C#N)=C/c1ccc2c(c1)c1cc(*)ccc1n2CCCCCCCCCCCOc1ccc(/C=C/c2ccc([N+](=O)[O-])cc2)cc1 (repeat unit) | 87.00 °C
10 | *N=P(*)(CC)c1ccccc1 (repeat unit) | 20.00 °C
11 | *c1ccc(OCCOc2ccc(/C=C/c3ccc([N+](=O)[O-])cc3)c(OCCOc3ccc(-c4nc5ccc(Oc6ccc7nc(*)c(-c8ccccc8)nc7c6)cc5nc4-c4ccccc4)cc3)c2)cc1 (repeat unit) | 187.00 °C
12 | *c1c(C)cc(-c2cc(C)c(N3C(=O)c4ccc(Oc5ccc(C(C)(C)c6ccc(Oc7ccc8c(c7)C(=O)N(*)C8=O)cc6)cc5)cc4C3=O)c(C)c2)cc1C (repeat unit) | 280.00 °C
13 | *Oc1ccc(C2(c3ccc(OC(=O)CCCC(*)=O)cc3)c3cc(N(C)C)ccc3-c3ccc([N+](=O)[O-])cc32)cc1 (repeat unit) | 181.00 °C
14 | *O[Si](C)(C)O[Si](C)(C)O[Si](C)(C)O[Si](C)(C)C#Cc1ccc(C#C[Si](*)(C)C)cc1 (repeat unit) | 84.00 °C
15 | *O[Si](C)(CCC(F)(F)F)CCC(F)(F)C(F)(F)CC[Si](*)(C)CCC(F)(F)F (repeat unit) | -27.00 °C
16 | *CCCCCCOP(=O)(/N=N/c1ccc(COC(=O)c2cc(C(=O)OCc3ccc(/N=N/P(=O)(O*)OC)cc3)cc(C(C)(C)C)c2)cc1)OC (repeat unit) | 62.00 °C
17 | *c1ccc(Oc2ccc(N3C(=O)c4ccc(Oc5ccc(Sc6ccc(Oc7ccc8c(c7)C(=O)N(*)C8=O)cc6)cc5)cc4C3=O)cc2)cc1 (repeat unit) | 212.00 °C
18 | *c1cccc(NC(=O)c2ccc(-c3ccc(C(=O)Nc4cccc(S(*)(=O)=O)c4)c(C)c3)cc2C)c1 (repeat unit) | 260.00 °C
19 | *C(=O)Nc1cccc(NC(=O)c2ccc3c(c2)C(=O)N(c2ccc(Oc4ccc5ccc(Oc6ccc(N7C(=O)c8ccc(*)cc8C7=O)cc6)cc5c4)cc2)C3=O)c1 (repeat unit) | 286.00 °C
20 | *c1cccc(OCCCCCCCCOc2cccc(N3C(=O)c4ccc(-c5ccc6c(c5)C(=O)N(*)C6=O)cc4C3=O)c2)c1 (repeat unit) | 138.00 °C
21 | *c1ccc(Oc2ccc(C(=O)c3cccc(C(=O)c4ccc(Oc5ccc(-c6nc(-c7ccc(-c8nc(*)c(-c9ccccc9)[nH]8)cc7)[nH]c6-c6ccccc6)cc5)cc4)c3)cc2)cc1 (repeat unit) | 270.00 °C
22 | *CC(*)(C)C(=O)OCCN(CC)c1ccc(/N=N/c2ccc([N+](=O)[O-])cc2)cc1 (repeat unit) | 126.00 °C

Row | SMILES | glass transition temperature
23 | *CCCCCCC(=O)Oc1ccc(OC(=O)c2ccc3c(c2)C(=O)N(*)C3=O)c(C)c1 (repeat unit) | 57.21 °C
24 | *CC(*)OCCCC (repeat unit) [Poly(butyl vinyl ether)] | -52.08 ± 1.5 °C
25 | *C(=O)c1ccc2ncc(-c3ccc(-c4cnc5ccc(*)cc5n4)cc3)nc2c1 (repeat unit) | 318.00 °C
26 | */C(C)=C(/*)CCC (repeat unit) | 200.00 °C
27 | *c1ccc(Oc2ccc(-c3ccc(Oc4ccc(N5C(=O)c6ccc(Oc7c(C)cc(Cc8cc(C)c(Oc9ccc%10c(c9)C(=O)N(*)C%10=O)c(C)c8)cc7C)cc6C5=O)cc4)cc3)cc2)cc1 (repeat unit) | 248.00 °C
28 | *c1ccc2oc(-c3cccc(-c4nc5cc(C(*)(C(F)(F)F)C(F)(F)F)ccc5o4)c3)nc2c1 (repeat unit) | 301.00 °C
29 | *CC(*)c1c(F)c(F)c(OC)c(F)c1F (repeat unit) | 94.00 °C
30 | *CCCCCCCCCCCCOc1c(OC)cc(/C=C/c2ccc(/C=C/c3cc(OC)c(O*)c(OC)c3)cc2)cc1OC (repeat unit) | 61.10 °C
31 | *OC(=O)C1CCC(C(=O)OC2COC3C(*)COC23)CC1 (repeat unit) | 121.00 °C
32 | *CCCCCC(*)CCCC (repeat unit) | -69.00 °C
33 | *CCCCCCCOc1ccc(CCc2ccc(O*)cc2C)cc1 (repeat unit) | 6.50 °C
34 | *CC(OO*)c1ccc(Br)cc1 (repeat unit) | 9.60 °C
35 | *CC(*)(C)C(=O)OCCCCCCCCOc1ccc(C(=O)Oc2ccc(C(=O)/C=C/c3c(C)c4ccccc4n3C)cc2)cc1 (repeat unit) | 75.00 °C
36 | *CC(*)CCCCCCCCCC (repeat unit) | -6.00 °C
37 | *C(=O)Nc1ccc(-c2ccc(N3C(=O)CC(N4C(=O)c5ccc(*)cc5C4=O)C3=O)cc2)cc1 (repeat unit) | 219.00 °C
38 | *Oc1ccc(/C=C/C(=O)c2ccc(Oc3ccc(C(C)(C)c4ccc(*)c(C)c4)cc3C)cc2)cc1 (repeat unit) | 157.00 °C
39 | *Oc1ccc(C2(c3ccc(OC(*)=O)cc3)CCCC2)cc1 (repeat unit) | 166.00 °C
40 | *CCCCCCCCCOC(=O)Nc1ccc(C)c(NC(=O)O*)c1 (repeat unit) | 62.00 °C
41 | *CC(*)Cc1ccccc1C (repeat unit) | 80.00 °C
42 | *c1cccc(P(=O)(c2ccccc2)c2cccc(-n3c(=O)c4cc5c(=O)n(*)c(=O)c5cc4c3=O)c2)c1 (repeat unit) | 331.00 °C
43 | *C(=O)c1cc2c(cc1Cl)C(=O)N(c1c(C)cc(C)c(N3C(=O)c4cc(*)c(Cl)cc4C3=O)c1C)C2=O (repeat unit) | 371.00 °C
44 | *Oc1c(-c2ccccc2)cc(*)cc1-c1ccccc1 (repeat unit) | 220.00 °C

Row | SMILES | glass transition temperature
45 | *CC(*)(C)C(=O)OCc1ccc2c(c1)c1ccccc1n2CCCCCCCCCC (repeat unit) | 29.00 °C
46 | *CC(*)C(=O)OCCCCSC (repeat unit) | -70.00 °C
47 | *c1ccc([Si](c2ccccc2)(c2ccccc2)c2ccc(-c3nnc(-c4ccc(-c5nnc(*)o5)o4)o3)cc2)cc1 (repeat unit) | 276.00 °C
48 | *O[Si](*)(C)CCCCOc1ccc(C(=O)Oc2ccc(C#N)cc2)cc1 (repeat unit) | 16.00 °C
49 | *CCCCCCOC(=O)OCCCCCCCCOC(=O)OCCCCCCOc1ccc(Oc2ccc(O*)cc2)cc1 (repeat unit) | -17.00 °C
50 | *c1ccc2oc3ccc(S(*)(=O)=O)cc3c2c1 (repeat unit) | 360.00 °C
51 | *c1ccc(-c2nc3cc(Oc4ccc(NC(=O)c5ccc6c(c5)C(=O)N(c5ccc(C(c7ccc(N8C(=O)c9ccc(C(=O)Nc%10ccc(Oc%11ccc%12nc(-c%13ccccc%13)c(*)nc%12c%11)cc%10)cc9C8=O)cc7)(C(F)(F)F)C(F)(F)F)cc5)C6=O)cc4)ccc3nc2-c2ccccc2)cc1 (repeat unit) | 293.00 °C
52 | *c1ccc(S(=O)(=O)c2ccc(-n3nc(-c4ccc(Oc5ccc(-c6nn(*)c(=O)c7ccccc67)cc5)cc4)c4ccccc4c3=O)cc2)cc1 (repeat unit) | 295.00 °C
53 | *CC(*)(C)C(=O)OCCCCCCOc1ccc(/N=N/c2ccc([N+](=O)[O-])cc2)cc1 (repeat unit) | 108.00 °C
54 | *CC(*)c1ccc(COCC(F)(F)C(F)(F)C(F)(F)C(F)(F)F)cc1 (repeat unit) | 23.00 °C
55 | *CC(=O)Nc1ccc(Oc2ccc(C(C)(C)c3ccc(Oc4ccc(NC(=O)CN5C(=O)c6ccc(C(c7ccc8c(c7)C(=O)N(*)C8=O)(C(F)(F)F)C(F)(F)F)cc6C5=O)cc4)cc3)cc2)cc1 (repeat unit) | 224.00 °C
56 | *NNC(=O)c1ccc(C(*)=O)cc1OCCCCC (repeat unit) | 234.00 °C
57 | *Cc1cccc(CNC(=O)CCCCC(=O)N*)c1 (repeat unit) | 84.00 °C
58 | *CCCCCCCCCOc1ccc(CCc2ccc(O*)cc2C)cc1 (repeat unit) | -1.10 °C
59 | *CCOC(=O)NCCCCCCNC(=O)OCCOc1ccc(C2(c3ccc(O*)cc3)c3ccccc3-c3ccccc32)cc1 (repeat unit) | 61.00 °C
60 | *CC(*)C(=O)N1CCCCC1 (repeat unit) | 108.00 °C
61 | *CC(*)C(=O)OCCC(F)(F)C(F)(F)C(F)(F)C(F)(F)C(F)(F)C(F)(F)F (repeat unit) | -12.00 °C
62 | *CCOCCOCCOC(=O)CCSCCC(=O)O* (repeat unit) | -35.00 °C
63 | *OC1C(COC(C)=O)OC(*)C(OC(C)=O)C1OC(C)=O (repeat unit) | 178.00 °C
64 | *c1ccc2c(c1)C(=O)N(c1ccc(OCCOCCOc3ccc(N4C(=O)c5ccc(C(*)(C(F)(F)F)C(F)(F)F)cc5C4=O)cc3)cc1)C2=O (repeat unit) | 187.50 °C
65 | *c1ccc(Oc2ccc(S(=O)(=O)c3ccc(Oc4ccc(-c5c6c(c(*)c7ccccc57)C(=O)N(c5ccccc5C(F)(F)F)C6=O)cc4)cc3)cc2)cc1 (repeat unit) | 290.00 °C
